Assay results taken from PubChem BioAssay AID248 (DTP/NCI, 2004).
Where “and” joins values, the source holds several entries; their conditions need not be identical. Identical values can stand only once. Toxic doses and inconclusive results are not listed. Rule as the data show it: active = T/C of 150% or more; inactive = T/C below 125%.

Test system: L1210 leukemia ip in BDF1 mice, survival T/C
Test: NCI In Vivo Anticancer Drug Screen. Data for tumor model L1210 Leukemia (intraperitoneal) in B6D2F1 (BDF1) mice
Settings: endpoint: mean survival time, higher = longer survival
Method in brief: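 Tumor was transplanted into mice, which were then dosed with test compound or vehicle alone. Survival was recorded for each group, and the treated figure was expressed relative to the control figure.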

[1] = dose: 100.0 mg/kg/injection, schedule: Q04DX003 (ip), vehicle: saline with Tween-80
[2] = dose: 200.0 mg/kg/injection, schedule: Q04DX003 (ip), vehicle: saline with Tween-80
[3] = dose: 100.0 mg/kg/injection, schedule: Q04DX003 (ip), vehicle: saline
[4] = dose: 200.0 mg/kg/injection, schedule: Q04DX003 (ip), vehicle: saline
[5] = dose: 400.0 mg/kg/injection, schedule: Q04DX003 (ip), vehicle: saline
[6] = dose: 100.0 mg/kg/injection, schedule: Q04DX003 (ip), vehicle: Klucel (hydroxypropylcellulose) (HPC)
[7] = dose: 200.0 mg/kg/injection, schedule: Q04DX003 (ip), vehicle: Klucel (hydroxypropylcellulose) (HPC)
[8] = dose: 400.0 mg/kg/injection, schedule: Q04DX003 (ip), vehicle: Klucel (hydroxypropylcellulose) (HPC)
[9] = dose: 100.0 mg/kg/injection, schedule: Q01DX001 (ip), vehicle: saline with Tween-80
[10] = dose: 200.0 mg/kg/injection, schedule: Q01DX001 (ip), vehicle: saline with Tween-80
[11] = dose: 400.0 mg/kg/injection, schedule: Q01DX001 (ip), vehicle: saline with Tween-80
[12] = dose: 100.0 mg/kg/injection, schedule: Q01DX009 (ip), vehicle: Klucel (hydroxypropylcellulose) (HPC)
[13] = dose: 200.0 mg/kg/injection, schedule: Q01DX009 (ip), vehicle: Klucel (hydroxypropylcellulose) (HPC)
[14] = dose: 400.0 mg/kg/injection, schedule: Q01DX009 (ip), vehicle: Klucel (hydroxypropylcellulose) (HPC)
[15] = dose: 100.0 mg/kg/injection, schedule: Q01DX009 (ip), vehicle: saline with Tween-80
[16] = dose: 400.0 mg/kg/injection, schedule: Q04DX003 (ip), vehicle: saline with Tween-80

Measured: T/C

CCOC(=O)CCCN(c1ccccc1C(=O)OC)S(=O)(=O)c1ccc(C)cc1
inactive: dose: 100.0 mg/kg/injection, schedule: Q01DX001 (ip), vehicle: carboxymethylcellulose (CMC) 97 % of control | dose: 200.0 mg/kg/injection, schedule: Q01DX001 (ip), vehicle: carboxymethylcellulose (CMC) 94 % of control | dose: 400.0 mg/kg/injection, schedule: Q01DX001 (ip), vehicle: carboxymethylcellulose (CMC) 103 % of control

CCC1(/C=C/C(C)C)C(=O)NC(=O)NC1=O
inactive: dose: 75.0 mg/kg/injection, schedule: Q01DX001 (ip), vehicle: saline 105 % of control | dose: 150.0 mg/kg/injection, schedule: Q01DX001 (ip), vehicle: saline 93 % of control

NNC(=O)c1nc2ccccc2s1
inactive: dose: 75.0 mg/kg/injection, schedule: Q01DX001 (ip), vehicle: other 96 % of control | dose: 150.0 mg/kg/injection, schedule: Q01DX001 (ip), vehicle: other 98 % of control

c1cnc2c3c(ccc2c1)CN(C12CC4CC(CC(C4)C1)C2)CO3
inactive: [1] 102 % of control | [2] 107 % of control

CCCCCCCC/C=C\CCCCCCCC(=O)[O][Sn]([CH2]CCC)([CH2]CCC)[O]C(=O)CCCCCCC/C=C\CCCCCCCC
inactive: dose: 1.56 mg/kg/injection, schedule: Q01DX009 (ip), vehicle: Klucel (hydroxypropylcellulose) (HPC) 109 % of control | dose: 3.12 mg/kg/injection, schedule: Q01DX009 (ip), vehicle: Klucel (hydroxypropylcellulose) (HPC) 98 % of control | dose: 6.25 mg/kg/injection, schedule: Q01DX009 (ip), vehicle: Klucel (hydroxypropylcellulose) (HPC) 106 % of control

CC1=C(O)C(=O)C(c2c(C)cc(C)c(Br)c2C)=C(O)C1=O
inactive: dose: 75.0 mg/kg/injection, schedule: Q01DX009 (ip), vehicle: Klucel (hydroxypropylcellulose) (HPC) 117 % of control

CN(CC(C)(C)C=O)C(=O)c1ccccc1
inactive: [3] 96 % of control | [4] 103 % of control | [5] 100 % of control

COC1=C(c2ccccc2)P(=O)(Cc2ccccc2)C2CCCC12 (centres undefined)
inactive: [6] 109 % of control | [7] 96 % of control | [8] 100 % of control

CC1CCCC(c2ccccc2)C1 (centres undefined)
inactive: [9] 97 % of control | [10] 102 % of control | [11] 101 % of control

COC(OC)c1cc(=O)[nH]cn1
inactive: [12] 94 % of control | [13] 106 % of control | [14] 107 % of control

Nc1ncnn1Cc1ccccc1
inactive: dose: 100.0 mg/kg/injection, schedule: Q01DX001 (ip), vehicle: saline 96 % of control | [3] 101 % of control | dose: 200.0 mg/kg/injection, schedule: Q01DX001 (ip), vehicle: saline 97 % of control | [4] 106 % of control | dose: 400.0 mg/kg/injection, schedule: Q01DX001 (ip), vehicle: saline 100 % of control | [5] 101 % of control

CCCCCCCCCCCCc1c(C(OC)OC)[nH]c(=S)[nH]c1=O
inactive: [15] 94 % of control | [1] 98 % of control | dose: 200.0 mg/kg/injection, schedule: Q01DX009 (ip), vehicle: saline with Tween-80 100 % of control | [2] 96 % of control | dose: 400.0 mg/kg/injection, schedule: Q01DX009 (ip), vehicle: saline with Tween-80 103 % of control | [16] 93 % of control

O=C(NCCCCCCCNC(=O)Nc1ccc(C2=NCCCN2)cc1)Nc1ccc(C2=NCCCN2)cc1
inactive: dose: 3.75 mg/kg/injection, schedule: Q01DX Z (ip), vehicle: carboxymethylcellulose (CMC) 98 % of control | dose: 7.5 mg/kg/injection, schedule: Q01DX Z (ip), vehicle: carboxymethylcellulose (CMC) 102 % of control | dose: 15.0 mg/kg/injection, schedule: Q01DX Z (ip), vehicle: carboxymethylcellulose (CMC) 120 % of control | dose: 30.0 mg/kg/injection, schedule: Q01DX Z (ip), vehicle: carboxymethylcellulose (CMC) 89 % of control

CCN(C(=O)Nc1ccc(Cl)cc1)c1ccccc1C
inactive: [1] 91 % of control | [2] 93 % of control

Cc1cc(C(=O)O)c(CN2C(=O)c3ccccc3C2=O)c(=O)n1C
inactive: [9] 105 % of control | dose: 100.0 mg/kg/injection, schedule: Q04DX003 (ip), vehicle: water 102 % of control | [10] 100 % of control | dose: 200.0 mg/kg/injection, schedule: Q04DX003 (ip), vehicle: water 100 % of control | [11] 100 % of control | dose: 400.0 mg/kg/injection, schedule: Q04DX003 (ip), vehicle: water 104 % of control

CCOc1ccc(NC(=S)NCCc2ccccc2)cc1
inactive: [12] 102 % of control | [13] 102 % of control | [14] 105 % of control

COc1ccc2c(c1)-c1c(ccc(OC)c1OC(=O)C(=O)c1ccccc1)CC(Cl)N(C)CC2.[O]=[Cr](=[O])([OH])[OH] (centres undefined)
inactive: [3] 89 % of control | [4] 89 % of control | [5] 90 % of control

CN(C)N=Nc1ccc(S(N)(=O)=O)cc1
inactive: dose: 50.0 mg/kg/injection, schedule: Q01DX001 (ip), vehicle: saline with Tween-80 98 % of control | dose: 50.0 mg/kg/injection, schedule: Q04DX003 (ip), vehicle: saline with Tween-80 103 % of control and 105 % of control | [9] 102 % of control | [1] 103 % of control and 105 % of control | [10] 104 % of control | [2] 105 % of control | [11] 105 % of control | [16] 106 % of control and 112 % of control

OC(Cc1cncc(CC(O)(C(F)(F)F)C(F)(F)F)n1)(C(F)(F)F)C(F)(F)F
inactive: dose: 100.0 mg/kg/injection, schedule: Q01DX009 (ip), vehicle: saline 95 % of control | [3] 96 % of control | dose: 200.0 mg/kg/injection, schedule: Q01DX009 (ip), vehicle: saline 105 % of control | [4] 92 % of control | dose: 400.0 mg/kg/injection, schedule: Q01DX009 (ip), vehicle: saline 98 % of control | [5] 97 % of control

O=C(C=C(C(F)(F)F)C(F)(F)F)c1ccc(F)cc1
inactive: dose: 6.25 mg/kg/injection, schedule: Q01DX009 (ip), vehicle: other 91 % of control | dose: 6.25 mg/kg/injection, schedule: Q04DX003 (ip), vehicle: other 95 % of control | dose: 12.5 mg/kg/injection, schedule: Q01DX009 (ip), vehicle: other 92 % of control | dose: 12.5 mg/kg/injection, schedule: Q04DX003 (ip), vehicle: other 109 % of control | dose: 25.0 mg/kg/injection, schedule: Q01DX009 (ip), vehicle: other 103 % of control | dose: 25.0 mg/kg/injection, schedule: Q04DX003 (ip), vehicle: other 97 % of control and 103 % of control

O=C(CNC(=O)c1ccc(Cl)cc1Cl)N/N=C/c1ccc(Cl)c(Cl)c1
inactive: dose: 25.0 mg/kg/injection, schedule: Q01DX009 (ip), vehicle: saline with Tween-80 95 % of control | dose: 50.0 mg/kg/injection, schedule: Q01DX009 (ip), vehicle: saline with Tween-80 91 % of control | [15] 88 % of control

Cc1cc(N(C)C)c([N+](=O)[O-])cc1C=O
inactive: [12] 98 % of control | [6] 100 % of control | [13] 96 % of control | [7] 94 % of control | [14] 96 % of control | [8] 94 % of control
